Data reported in PMC6222847, “Application of HPCCC Combined with Polymeric Resins and HPLC for the Separation of Cyclic Lipopeptides Muscotoxins A–C and Their Antimicrobial Activity” (Molecules : A Journal of Synthetic Chemistry and Natural …, 2018).
*1 amine or outer side, *2 acyl side, *3 side chain or, on linkers, in order; H or OH if unused. Where a SMILES comes first, the peptide text is derived from it. [ ]: non-standard residue; d: D form. X1 = CCCCCC(O)CC(N[*:1])C(O)C(=O)[*:2]; d(aIle) = CC[C@H](C)[C@@H](N)C(=O)O; Dhb = C/C=C(\N)C(=O)O

Experiment: Partition coefficient (K) in two-phase HPCCC solvent systems
Type: physicochemical
Details: 2 mg extract in 2 mL (1 mL per phase), HPLC-ESI-HRMS
Description: When working with HPCCC, the search for a proper two-phase solvent system has been informed to represent the major part of the work involved in the HPCCC separation. An appropriate two-phase solvent system for HPCCC has to provide a good partition coefficient (0.5 ≤ K ≤ 2.5) for the target compound. […] Additionally, for achieving a good resolution between two closely eluting peaks, the separation factor (α) between the two compounds (α = K2/K1, K2 > K1) should be greater than 1.5 [14, 26]. It is well described that compounds with smaller K values show a poor resolution because they elute closer to the solvent front. On the contrary, those compounds with larger K value are better separated but elute as wider peaks and at later elution times. In the present study, the capacity of different two-phase solvent systems (Table 1) to provide suitable K values of the compounds 1–3 was investigated. The K value is frequently estimated by using HPLC with UV detection, which is calculated by dividing the peak area of the target compound in the upper phase by that of the peak area of the same target compound in the lower phase. However, given that UV chromatogram provided insufficient peak areas for minor muscotoxins, the MS detector was thus used to estimate the K values. By using this approach, the peak area of the molecular ions corresponding to the target compounds were selectively monitored from the base peak chromatogram. As presented in the Table 1, the solvent system 10 (n-hexane, ethyl acetate, ethanol, and water in a ratio of 1:5:1:5) gave suitable K values and a proper separation factor (α) for compounds 2 and 3, as well as a short settling time. […] The improvement of the K value of compound 1 could be achieved by finding out a new solvent system or by modifying the composition of the already selected solvent system. In the present study, the system 10 was acidified by adding acetic acid leading to the system 11 (n-hexane, ethyl acetate, ethanol, water, and acetic acid, 1:5:1:5:1). […] Although the partition coefficients of the target compounds in systems 10 and 11 are strongly correlated, the system 10 ensured a sufficient selectivity (α = 1.5) between the compounds 2 and 3. […] In HPCCC, it is very well established that when the retention of stationary phase is increased, a good chromatographic resolution is achieved. A reduced flow rate of the mobile phase and a high rotational speed of the column favor the retention of the stationary phase inside the HPCCC column. In this study, the flow rate of the mobile phase in the first step and second step of the HPCCC operations was 1 mL/min and the rotational speed was set at 1200 rpm. Moreover, it was observed that a good resolution between the compounds 2 and 3 was achieved when injecting 100 mg of enriched extract.
Different two-phase solvent systems were prepared using n-hexane, ethyl acetate, ethanol, water, and acetic acid in different proportions (Table 1). The prepared solvent systems were investigated for their capacity to provide suitable partition coefficients (K) of the target compounds. In addition, given that the settling time as well as the density difference between the upper and lower phases of each two-phase solvent system are parameters associated with the retention of stationary phase in the column, they were thus estimated and used as selection criteria. For estimating the partition coefficient (Table 1) of the target compound, 2 mg of extract containing the target compounds was dissolved in 2 mL of a given two-phase solvent system (1 mL per each phase). The test tube containing the sample solution was shaken vigorously, and then left, to equilibrate the two phases, for 20 min. Equal volumes of each phase were then analyzed by HPLC-ESI-HRMS to obtain the partition coefficients (K), which were calculated by dividing the peak area of the target compound in the upper phase by the peak area of compound in the lower phase.

## C/C=C1\NC(=O)[C@H](CO)NC(=O)[C@@H]([C@@H](C)CC)NC(=O)[C@H](Cc2ccccc2)NC(=O)[C@@H]2CCCN2C(=O)CNC(=O)[C@@H](CCC(N)=O)NC(=O)C(O)C(CC(O)CCCCC)NC(=O)[C@@H]2CCCN2C(=O)[C@@H]([C@@H](C)CC)NC(=O)[C@H](CO)NC1=O (some centres unmarked) [compound 2, muscotoxin A] (cyclo([Dhb]S[d(aIle)]P[X1][dQ]GPF[d(aIle)]S))
Solvent system 1, n-Hex–EtOH–H2O 10:5:5, shake test tube, equilibrated 20 min, K = peak area upper phase/lower phase
  Partition Coefficient (K) of Muscotoxins: 0.03
Solvent system 2, n-Hex–EtOAc–EtOH–H2O 9:1:5:5, shaken, 20 min, K = peak area UP/LP
  Partition Coefficient (K) of Muscotoxins: 0.03
Solvent system 3, n-Hex–EtOAc–EtOH–H2O 8:2:5:5, shaken, 20 min, K = peak area UP/LP
  Partition Coefficient (K) of Muscotoxins: 0.01
Solvent system 4, n-Hex–EtOAc–EtOH–H2O 7:3:5:5, shaken, 20 min, K = peak area UP/LP
  Partition Coefficient (K) of Muscotoxins: 0.06
Solvent system 5, n-Hex–EtOAc–EtOH–H2O 6:4:5:5, shaken, 20 min, K = peak area UP/LP
  Partition Coefficient (K) of Muscotoxins: 0.09
Solvent system 6, n-Hex–EtOAc–EtOH–H2O 5:5:5:5, shaken, 20 min, K = peak area UP/LP
  Partition Coefficient (K) of Muscotoxins: 0.01
Solvent system 7, n-Hex–EtOAc–EtOH–H2O 4:5:4:5, shaken, 20 min, K = peak area UP/LP
  Partition Coefficient (K) of Muscotoxins: 0.14
Solvent system 8, n-Hex–EtOAc–EtOH–H2O 3:5:3:5, shaken, 20 min, K = peak area UP/LP
  Partition Coefficient (K) of Muscotoxins: 0.32
Solvent system 9, n-Hex–EtOAc–EtOH–H2O 2:5:2:5, shaken, 20 min, K = peak area UP/LP
  Partition Coefficient (K) of Muscotoxins: 0.97
Solvent system 10, n-Hex–EtOAc–EtOH–H2O 1:5:1:5, shaken, 20 min, K = peak area UP/LP
  Partition Coefficient (K) of Muscotoxins: 0.94
Solvent system 11, n-Hex–EtOAc–EtOH–H2O–AcOH 1:5:1:5:1, shaken, 20 min, K = peak area UP/LP
  Partition Coefficient (K) of Muscotoxins: 1.97
